The source made the active and inactive calls. The calls are words filed in the database; no cut-off is given here.

Results on 2 compounds are retold here after ChEMBL document CHEMBL1155444, “(Bis)urea and (bis)thiourea inhibitors of lysine-specific demethylase 1 as epigenetic modulators” (J Med Chem, 2010).

Common to all, as to assay type: cell-based
Conditions in all cases: HCT-116

In test [1] the target is Lysine-specific histone demethylase 1A (Homo sapiens) (UniProt O60341). Briefly: Inhibition of LSD1 in human HCT116 cells assessed as increase in cellular histone 3 dimethyllysine 4 level treated at increasing concentration after 48 hrs.
Test [2] has the same target. Put plainly: Inhibition of LSD1 in human HCT116 cells assessed as increase in cellular histone 3 methyllysine 4 level treated at increasing concentration after 48 hrs.
The target is the same in test [3]. Put plainly: Inhibition of LSD1 in human HCT116 cells assessed as increase in cellular histone 3 dimethyllysine 9 level treated at increasing concentration after 48 hrs.

Regarding `N=C(NCCCNCCCCCCCNCCCNC(=N)NC(=N)NCCC(c1ccccc1)c1ccccc1)NC(=N)NCCC(c1ccccc1)c1ccccc1`, the inhibition entry in test [1] and in test [2] was “Active” each time. The inhibition result in test [3] was “inactive”.
In the case of `C/N=C(\NC)NCCCNCCCNCCCN/C(=N/C)NC`, the inhibition entry in test [1] and in test [2] was “Active” throughout. In addition, the inhibition entry in test [3] was “inactive”.
